According to US6281222A (Inotek Corporation, priority 2000, dated 2001):
Entries after “also recorded” stand apart in the source; their conditions may differ.

Experiments:
[1] = Survival after severe acetaminophen intoxication, fasted 36 hours (FIG. 3); assay type: in vivo, mice; settings: mouse, in vivo, ip; 350 mg/kg i.p., fasted 36 hours, by 8 hours
[2] = tested on: acetaminophen-intoxicated mice; assay: as above; assay type: in vivo
[3] = Preliminary toxicity study, enteral administration; assay type: in vivo, mice; settings: enteral gavage up to 1000 mg/kg (300, 500, 1000 mg/kg), 24 h, n=8 per group
Protocol: Preliminary toxicity studies were performed with AHPP to estimate the expected therapeutic ratio of the compound.

[4] = tested on: acetaminophen-induced mortality; assay: Dose response survival study; assay type: in vivo; settings: for protective effect / survival: 24 hours; for survival rate: vehicle 25%; for survival: vehicle 0%
Protocol: The minimally effective dose of AHPP was examined. Criteria for an effective dose included ability to suppress liver injury and protect against acetaminophen-induced mortality. […] Although the effect was only partial, ALT levels were reduced by 56±16% (n=8; p<0.05).
In order to validate the significance of the above mentioned reductions in serum transaminases, a dose response survival study was also performed. […] Survival rate was 25% in the vehicle treated group, and improved to 87% with 3 mg/kg and 10 mg/kg q8h doses. […] For the survival studies, n=8-10 animals per group. […] The effective dose range lays between 10 and 50 mg/kg of AHPP q8h per enteral gavage.

[5] = tested on: acetaminophen-induced increases in ALT plasma levels; assay: Serum/plasma ALT levels with different frequencies and starting points of AHPP or NAC treatment (FIG. 2); assay type: in vivo, rats
Source text: The effectiveness of AHPP when given at various frequencies and starting points of administration was also examined. […] Serum ALT levels in rats were then examined
The bars from the left to the right represent the following groups: […]

[6] = tested on: liver tissues (centrilobular injury); assay: Histological injury score in the liver; assay type: in vivo, rats
Protocol: Scoring was performed by two independent investigators who were blinded to the treatment regimen. The following grading system was used: 0--normal liver, no signs of injury; 1--rare areas of centrilobular injury; 2--moderate injury involving many centrilobular areas; 3--extensive centrilobular necrosis; 4--massive hepatic injury involving all centrilobular areas and beyond.

[7] = tested on: acetaminophen-induced liver injury; assay: Minimally effective AHPP dose: reduction in serum ALT; assay type: in vivo
[8] = tested on: acetaminophen-induced liver injury; assay: Plasma ALT and AST release after acetaminophen, with simultaneous AHPP treatment (FIGS. 1A and 1B); assay type: in vivo, rats; settings: AHPP 50 mg/kg q8h per gavage, simultaneous with acetaminophen 350 mg/kg i.p.
Protocol: The effect of AHPP on the release of ALT and AST in plasma was examined. […] The effect of AHPP is measured by the release of AST and ALT in rats.

[9] = 50 mg/kg enterally, 4 h post-acetaminophen

CC(=O)Nc1ccc(O)cc1 [acetaminophen, reference compound]
mortality at 8 h [1]: 75%
onset of lethality ([2]; 350 mg/kg i.p., fasted 36 hours): 2 h

Nc1nc(O)nc2[nH]ncc12 [AHPP, 4-Amino-6-hydroxypyrazolo[3,4-d]pyrimidine]
mortality or behavioral or histological alterations [3]: did not result in mortality or behavioral or histological alterations
protective effect ([4]; 3 mg/kg q8h): lost its protective effect
survival rate ([4]; 3 mg/kg q8h enteral gavage, 8 hours): 87%
survival ([4]; 3 mg/kg q8h enteral gavage): 0%
protective effect ([4]; 10 mg/kg q8h): maintained its protective effect
survival rate ([4]; 10 mg/kg q8h enteral gavage, 8 hours): 87%
survival ([4]; 10 mg/kg q8h enteral gavage): 63%
protection against mortality ([4]; 3 and 10 mg/kg q8h enteral gavage, 8 hours): significantly protected against mortality
protective effect, 8 h+16 h ([5]; 50 mg/kg enteral gavage at 8 h and 16 h post-acetaminophen): significant protective effects
effect on ALT levels, 4 h post-treatment ([5]; 50 mg/kg enterally, 4 h post-acetaminophen, no supplemental doses): reduced
ALT levels vs acetaminophen alone ([5]; concurrent with, or subsequent to acetaminophen): lowered ALT levels
enteral uptake ([5]; inferred from efficacy via gavage, 24 h protocol): sufficient enteral uptake
effect of timing and frequency of administration ([5]; start close in time to acetaminophen, followed by additional treatments at 8 h interval): most effective
hepatoprotection, conclusion ([5]; summary of data): advantageously compares to NAC as a hepatoprotective agent; also recorded: effective via an enteral delivery route; also recorded: effective both as a co-treatment and in delayed post-treatment regimens
median histological injury score ([6]; AHPP+Acetaminophen, scale 0 (normal liver) to 4 (massive hepatic injury), p<0.05): 2.1
histological injury in the liver ([6]; response to AHPP treatment, in words): significant attenuation of the histological injury
protective effect ([7]; 3 mg/kg q8h per enteral gavage): significant protection
reduction in ALT levels ([7]; 3 mg/kg q8h per enteral gavage, n=8, p<0.05): 56±16%
efficacy relative to 50 mg/kg dose ([7]; 10 mg/kg q8h per enteral gavage): equivalent in efficacy to the 50 mg/kg dose
reduction in serum ALT concentration ([7]; 10 mg/kg q8h per enteral gavage, n=7, p<0.01): 89%
degree of liver injury, as assessed by release of ALT and AST [8]: significantly reduced the degree of liver injury
protection / survival ([2]; AHPP 30 mg/kg q8h gavage, simultaneous with acetaminophen 350 mg/kg i.p.): markedly protective; also recorded: dramatically prolonged survival

CC(=O)N[C@@H](CS)C(=O)O [N-acetyl-cysteine, reference compound]
protective effect, co-treatment (0 h) ([5]; 50 mg/kg enterally at time of acetaminophen injection): significantly protective
degree of liver injury, 4 h post-treatment [5, 9]: exacerbated the degree of liver injury
protective effect, 4 h post-treatment [5, 9]: lost its protective effect
